Source: patent publication US11229664B2, “Treatment of myelosuppression” (priority 2012, dated 2022)
Values joined by “and” are separate entries in the source; they are usually repeats but may differ in a detail not shown here. Equal values may be shown once.

Legend:
white blood cells = test: Clinical trial, metastatic pancreatic cancer: total white blood cell count; assay type: in vivo, human; conditions: individual patients, ODSH adjunctive to gemcitabine and nab-paclitaxel
Text: Male and non-pregnant, non-lactating, female patients, aged 18 to 75, with histologically confirmed metastatic adenocarcinoma of the pancreas were enrolled in the trial. […] In addition, patients were screened for blood chemistry levels, including serum creatinine levels within normal limits, serum transaminase levels of […] the upper limit of normal, and bilirubin levels of 1.5 times the upper limit of normal […].
Treatment consisted of a series of 28-day cycles, wherein the last day of one cycle (e.g., day 28, cycle 1) was immediately followed by the first day of the next cycle (e.g., day 1, cycle 2). In each 28-day treatment cycle, patients were dosed at days 1, 8, and 15 (three weeks of medication followed by one week of rest) as follows. First, nab-paclitaxel at 125 mg/m^2 was administered as an intravenous infusion over 30 minutes. […] Nab-paclitaxel and gemcitabine therapy was given as described in the prescribing information for Abraxane® and Gemzar®. See also, Von Hoff et al., 2011, J. Clinical Oncology 29:1-7). […]
An initial run-in period was conducted in which ten patients were treated with the gemcitabine, nab-paclitaxel, and ODSH regimen described above. After all ten patients had completed at least one 28-day cycle, the data were reviewed and an open-label randomized study initiated, with two arms (ODSH arm and Control arm). In the ODSH arm, the dosing regimen was the same as in the run-in period (gemcitabine, nab-paclitaxel, and ODSH). In the Control arm, patients were given the same gemcitabine and nab-paclitaxel regimen as in the run-in period, but without ODSH.
Blood was drawn before treatment administration on days 1, 8, and 15 of each 28 day cycle. Platelet counts, total white blood cell counts, and absolute neutrophil counts were performed. Grading of thrombocytopenia and/or neutropenia was performed according to the following standards: […]

[1] = test system: partial thromboplastin time (aPTT); test: Clinical trial: partial thromboplastin time (aPTT) during ODSH infusion; assay type: in vivo, human; conditions: for aPTT: individual patients
Text: (§1) As a substantially non-anticoagulant heparinoid, ODSH can be administered at a dose that is greater than the fully anticoagulant dose of unfractionated heparin, without concern for anticoagulant effect, as shown in the Results below.
Lack of anticoagulation by ODSH was confirmed by monitoring partial thromboplastin time (aPTT) during ODSH infusion, at days 1, 3, 10, and 17 of treatment cycle 1. Normal range of aPTT is about 27 to 35 seconds+/−15%.

[2] = A2780 xenograft study: body weight; assay type: in vivo, athymic female mice; conditions: Group 2: 48 mg/kg IV QD + 24 mg/kg SC BID, individual mice, listed as PGX ODSH
Experimental: ODSH (50 mg/mL stock concentration) was made by Pyramid Laboratories, Inc. and stored at room temperature until use. As described further below, ODSH was administered either intravenously (IV), at a dose of 48 mg/kg and volume of 10 mL/kg, or subcutaneously (SC) at a dose of 24 mg/kg and volume of 5 ml/kg. Carboplatin obtained from a clinical supplier was stored at 4° C. until use. Carboplatin was administered by intraperitoneal injection (IP) at a dose of 80 mg/kg and volume of 10 mL/kg. Saline solution (0.9% NaCl) was used as a vehicle control for ODSH and administered by the same routes and in the same volumes as ODSH.
Human ovarian cancer cell line A2780 was used in the murine xenograft experiments as follows. Approximately 5×10^6 A2780 cells were used per mouse, injected subcutaneously into the right flank in 0.1 mL of 50% Matrigel/50% media. The study was initiated when tumors reached a size of 90-130 mg. 40 mice were used, 10 per treatment regimen. The mice were normal athymic female mice, aged 6-7 weeks, housed in microisolator cages and maintained under pathogen-free conditions. Tumor and body weights were measured three times per week.
Four treatment groups were studied.

anti-thrombin III = anti-thrombin III (Homo sapiens, UniProt P01008); conditions: cited from earlier work
anti-thrombin III, sequence (P01008 33-464, species assumed): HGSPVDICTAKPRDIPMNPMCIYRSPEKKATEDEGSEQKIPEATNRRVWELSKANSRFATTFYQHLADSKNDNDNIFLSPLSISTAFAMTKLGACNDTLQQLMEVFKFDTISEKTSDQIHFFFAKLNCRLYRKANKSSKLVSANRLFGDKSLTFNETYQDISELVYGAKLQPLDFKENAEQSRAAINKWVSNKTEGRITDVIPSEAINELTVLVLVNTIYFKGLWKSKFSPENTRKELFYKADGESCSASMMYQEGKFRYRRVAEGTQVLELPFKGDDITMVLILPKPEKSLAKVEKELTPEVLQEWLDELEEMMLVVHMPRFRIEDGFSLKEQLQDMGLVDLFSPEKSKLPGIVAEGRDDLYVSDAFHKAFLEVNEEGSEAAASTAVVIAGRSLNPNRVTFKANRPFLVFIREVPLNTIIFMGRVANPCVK

[3] = assay type: in vivo, human
Experimental: Treatment consisted of a series of 28-day cycles, wherein the last day of one cycle (e.g., day 28, cycle 1) was immediately followed by the first day of the next cycle (e.g., day 1, cycle 2). In each 28-day treatment cycle, patients were dosed at days 1, 8, and 15 (three weeks of medication followed by one week of rest) as follows. First, nab-paclitaxel at 125 mg/m^2 was administered as an intravenous infusion over 30 minutes. […] Nab-paclitaxel and gemcitabine therapy was given as described in the prescribing information for Abraxane® and Gemzar®. See also, Von Hoff et al., 2011, J. Clinical Oncology 29:1-7).
as §1

substantially 2-O, 3-O desulfated heparin [ODSH]
White Blood Cell Counts (white blood cells; Cycle 1 Day 1): 6.8 ×10^3/μl blood and 7.7 ×10^3/μl blood and 7.3 ×10^3/μl blood and 5.0 ×10^3/μl blood and 4.6 ×10^3/μl blood and 6.5 ×10^3/μl blood and 5.7 ×10^3/μl blood and 8.7 ×10^3/μl blood and 6.0 ×10^3/μl blood and 7.2 ×10^3/μl blood
White Blood Cell Counts (white blood cells; Cycle 1 Day 8): 4.4 ×10^3/μl blood and 6.2 ×10^3/μl blood and 2.7 ×10^3/μl blood and 5.3 ×10^3/μl blood and 2.8 ×10^3/μl blood and 5.1 ×10^3/μl blood and 2.3 ×10^3/μl blood and 5.7 ×10^3/μl blood and 3.4 ×10^3/μl blood and 4.1 ×10^3/μl blood
White Blood Cell Counts (white blood cells; Cycle 1 Day 15): 4.2 ×10^3/μl blood and 5.1 ×10^3/μl blood and 2.1 ×10^3/μl blood and 6.0 ×10^3/μl blood and 2.0 ×10^3/μl blood and 3.2 ×10^3/μl blood and 2.7 ×10^3/μl blood (2×) and 5.4 ×10^3/μl blood and 1.5 ×10^3/μl blood
White Blood Cell Counts (white blood cells; Cycle 2 Day 1): 4.9 ×10^3/μl blood and 7.8 ×10^3/μl blood and 17.8 ×10^3/μl blood and 5.9 ×10^3/μl blood and 6.5 ×10^3/μl blood and 5.7 ×10^3/μl blood and 11.0 ×10^3/μl blood and 3.4 ×10^3/μl blood and 10.8 ×10^3/μl blood
White Blood Cell Counts (white blood cells; Cycle 2 Day 8): 10.2 ×10^3/μl blood and 4.5 ×10^3/μl blood and 4.6 ×10^3/μl blood and 2.9 ×10^3/μl blood and 6.4 ×10^3/μl blood
White Blood Cell Counts (white blood cells; Cycle 2 Day 15): 3.4 ×10^3/μl blood and 4.3 ×10^3/μl blood and 5.4 ×10^3/μl blood and 2.4 ×10^3/μl blood and 4.4 ×10^3/μl blood
White Blood Cell Counts (white blood cells; Cycle 3 Day 1): 6.0 ×10^3/μl blood and 7.6 ×10^3/μl blood and 4.8 ×10^3/μl blood and 5.8 ×10^3/μl blood
White Blood Cell Counts (white blood cells; Cycle 3 Day 8): 4.8 ×10^3/μl blood and 2.7 ×10^3/μl blood
White Blood Cell Counts (white blood cells; Cycle 3 Day 15): 4.3 ×10^3/μl blood
White Blood Cell Counts (white blood cells; Cycle 4 Day 1): 8.5 ×10^3/μl blood
White Blood Cell Counts (white blood cells; Cycle 4 Day 8): 6.0 ×10^3/μl blood
White Blood Cell Counts (white blood cells; Screen): 8.5 ×10^3/μl blood and 6.7 ×10^3/μl blood (2×) and 6.3 ×10^3/μl blood and 6.5 ×10^3/μl blood and 10.8 ×10^3/μl blood and 10.6 ×10^3/μl blood and 6.0 ×10^3/μl blood and 7.3 ×10^3/μl blood
Anticoagulation as determined by partial thromboplastin time (aPTT) ([1]; 4 mg/kg bolus + 0.375 mg/kg/hr 48 h): did not result in anticoagulation
aPTT ([1]; Cycle 1 Day 1): 29 seconds (2×) and 24 seconds and 36 seconds and 33 seconds and 28 seconds and 26 seconds and 25 seconds and 27 seconds
aPTT ([1]; Cycle 1 Day 3): 28 seconds and 33 seconds (2×) and 43 seconds and 38 seconds and 31 seconds (3×) and 34 seconds
aPTT ([1]; Cycle 1 Day 10): 34 seconds (2×) and 32 seconds and 38 seconds and 35 seconds and 31 seconds (2×) and 33 seconds and 36 seconds
aPTT ([1]; Cycle 1 Day 17): 34 seconds and 28 seconds and 30 seconds (2×) and 42 seconds and 36 seconds and 33 seconds and 29 seconds
Individual weights, Day 1 Weight ([2]; Day 1 (baseline)): 22.1 g and 20.3 g and 21.0 g and 21.8 g and 21.6 g and 21.4 g and 19.8 g (2×) and 20.9 g and 19.7 g
Day 4 Weight change ([2]; Day 4): 3.6% and 1.5% and −0.5% and −1.8% and 6.5% and 1.9% and −1.0% and 5.6% and 10.0% and −2.5%
Individual weights, Day 4 Weight ([2]; Day 4): 22.9 g and 20.6 g and 20.9 g (2×) and 21.4 g and 23.0 g (2×) and 21.8 g and 19.6 g and 19.2 g
Day 6 Weight change ([2]; Day 6): 5.0% and 1.5% and 1.0% and −1.4% and 13.4% and 2.8% and 2.0% and 7.6% and 8.1% and −2.5%
Individual weights, Day 6 Weight ([2]; Day 6): 23.2 g and 20.6 g and 21.2 g and 21.5 g and 24.5 g and 22.0 g and 20.2 g and 21.3 g and 22.6 g and 19.2 g
Day 8 Weight change ([2]; Day 8): 5.0% and 5.4% and 2.9% and 2.3% and 16.2% and 5.6% (2×) and 12.1% and 6.7% and 2.0%
Individual weights, Day 8 Weight ([2]; Day 8): 23.2 g and 21.4 g and 21.6 g and 22.3 g (2×) and 25.1 g and 22.6 g and 20.9 g and 22.2 g and 20.1 g
Day 11 Weight change ([2]; Day 11): 4.5% and 10.3% and 4.8% (2×) and 4.1% and 17.6% and 8.4% and 5.6% and 14.6% and 6.1%
Individual weights, Day 11 Weight ([2]; Day 11): 23.1 g and 22.4 g and 22.0 g and 22.7 g (2×) and 25.4 g and 23.2 g and 20.9 g (2×) and 21.9 g
Day 14 Weight change ([2]; Day 14): 10.0% and 14.3% and 8.6% and 8.7% and 23.6% and 11.2% (2×) and 11.1% and 17.2% and 9.6%
Individual weights, Day 14 Weight ([2]; Day 14): 24.3 g and 23.2 g (2×) and 22.8 g and 23.7 g and 26.7 g and 23.8 g and 22.0 g and 22.9 g and 21.9 g
Day 18 Weight change ([2]; Day 18): 5.9% and 14.3% and 11.0% and 6.4% and 22.2% and 11.2% and 1.0% and 10.1% and 10.0% and 7.6%
Individual weights, Day 18 Weight ([2]; Day 18): 23.4 g and 23.2 g (2×) and 23.3 g and 26.4 g and 23.8 g and 20.0 g and 21.8 g and 23.0 g and 21.2 g
Day 21 Weight change ([2]; Day 21): 7.2% and 18.2% and 10.5% and 10.1% and 22.2% and 12.6% and 3.0% and 10.6% and 9.6% and 11.2%
Individual weights, Day 21 Weight ([2]; Day 21): 23.7 g and 24.0 g (2×) and 23.2 g and 26.4 g and 24.1 g and 20.4 g and 21.9 g (2×) and 22.9 g
Day 25 Weight change ([2]; Day 25): 19.7% and 31.0% and 9.6% and 18.2% and 14.8%
Individual weights, Day 25 Weight ([2]; Day 25): 24.3 g and 28.3 g and 21.7 g and 23.4 g and 24.0 g
Day 28 Weight change ([2]; Day 28): 23.2% and 32.9% and 15.7% and 20.2% and 15.8%
Individual weights, Day 28 Weight ([2]; Day 28): 29.0 g and 28.7 g and 22.9 g and 23.8 g and 24.2 g
Kd, affinity for anti-thrombin III (anti-thrombin III): ~4000 µg/mL
Kd (anti-thrombin III; read-out: Kd, affinity for anti-thrombin III): ~339 µM
Effect on patient weight ([3]; ODSH adjunct to gemcitabine/nab-paclitaxel): minimum weight loss or even some weight gain
Weight ([3]; individual patients, ODSH adjunctive to gemcitabine and nab-paclitaxel, Cycle 6 Day 1): 176 pounds and 133 pounds and 157 pounds
